# Experimental data taken from patent US20180099931A1 (AbbVie S.à.r.l., priority 2016, published 2018).
# Like-named read-outs stand apart in the source and are kept apart here.
# Target: T1, F508delCFTR (Homo sapiens, UniProt P13569, DEL508-508)
# T1 construct: expressed in transfected cells; host or cells: CFBE41o- human lung-derived epithelial cells (CFBE4lo-F508delCFTR-HRP), doxycycline-inducible
# Assay: Cell Surface Expression-Horse Radish Peroxidase (CSE-HRP) Assay;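 on Maximum % activity (with co-corrector): co-corrector and positive control are both the same reference corrector at 2 µM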;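 on Maximum % activity (without co-corrector): percent of the 2 µM on-plate positive control corrector response above DMSO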
# Assay type: cell-based
# Conditions: for Maximum % activity (with co-corrector) / Emax: maximum at any tested concentration, normalized to on-plate positive control; for Emax: read-out: Maximum % activity (without co-corrector)
# [1] = CSE-HRP, test compound without co-corrector, read-out: EC50 (without co-corrector)
# [2] = CSE-HRP, with co-corrector (2 μM of 3-[(2R,4R)-4-({[1-(2,2-difluoro-1,3-benzodioxol-5-yl)cyclopropyl]carbonyl}amino)-7-methoxy-3,4-dihydro-2H-chromen-2-yl]benzoic acid), read-out: EC50 (with co-corrector)
# [3] = CSE-HRP, with co-corrector (2 μM)
# [4] = test compound without co-corrector, read-out: EC50 (without co-corrector)
# [5] = with co-corrector (2 μM of 3-[(2R,4R)-4-({[1-(2,2-difluoro-1,3-benzodioxol-5-yl)cyclopropyl]carbonyl}amino)-7-methoxy-3,4-dihydro-2H-chromen-2-yl]benzoic acid), read-out: EC50 (with co-corrector)
# [6] = test compound without co-corrector
# [7] = with co-corrector (2 μM of 3-[(2R,4R)-4-({[1-(2,2-difluoro-1,3-benzodioxol-5-yl)cyclopropyl]carbonyl}amino)-7-methoxy-3,4-dihydro-2H-chromen-2-yl]benzoic acid)
# T1 sequence (P13569 with tags, fused parts or gaps DEL508-508): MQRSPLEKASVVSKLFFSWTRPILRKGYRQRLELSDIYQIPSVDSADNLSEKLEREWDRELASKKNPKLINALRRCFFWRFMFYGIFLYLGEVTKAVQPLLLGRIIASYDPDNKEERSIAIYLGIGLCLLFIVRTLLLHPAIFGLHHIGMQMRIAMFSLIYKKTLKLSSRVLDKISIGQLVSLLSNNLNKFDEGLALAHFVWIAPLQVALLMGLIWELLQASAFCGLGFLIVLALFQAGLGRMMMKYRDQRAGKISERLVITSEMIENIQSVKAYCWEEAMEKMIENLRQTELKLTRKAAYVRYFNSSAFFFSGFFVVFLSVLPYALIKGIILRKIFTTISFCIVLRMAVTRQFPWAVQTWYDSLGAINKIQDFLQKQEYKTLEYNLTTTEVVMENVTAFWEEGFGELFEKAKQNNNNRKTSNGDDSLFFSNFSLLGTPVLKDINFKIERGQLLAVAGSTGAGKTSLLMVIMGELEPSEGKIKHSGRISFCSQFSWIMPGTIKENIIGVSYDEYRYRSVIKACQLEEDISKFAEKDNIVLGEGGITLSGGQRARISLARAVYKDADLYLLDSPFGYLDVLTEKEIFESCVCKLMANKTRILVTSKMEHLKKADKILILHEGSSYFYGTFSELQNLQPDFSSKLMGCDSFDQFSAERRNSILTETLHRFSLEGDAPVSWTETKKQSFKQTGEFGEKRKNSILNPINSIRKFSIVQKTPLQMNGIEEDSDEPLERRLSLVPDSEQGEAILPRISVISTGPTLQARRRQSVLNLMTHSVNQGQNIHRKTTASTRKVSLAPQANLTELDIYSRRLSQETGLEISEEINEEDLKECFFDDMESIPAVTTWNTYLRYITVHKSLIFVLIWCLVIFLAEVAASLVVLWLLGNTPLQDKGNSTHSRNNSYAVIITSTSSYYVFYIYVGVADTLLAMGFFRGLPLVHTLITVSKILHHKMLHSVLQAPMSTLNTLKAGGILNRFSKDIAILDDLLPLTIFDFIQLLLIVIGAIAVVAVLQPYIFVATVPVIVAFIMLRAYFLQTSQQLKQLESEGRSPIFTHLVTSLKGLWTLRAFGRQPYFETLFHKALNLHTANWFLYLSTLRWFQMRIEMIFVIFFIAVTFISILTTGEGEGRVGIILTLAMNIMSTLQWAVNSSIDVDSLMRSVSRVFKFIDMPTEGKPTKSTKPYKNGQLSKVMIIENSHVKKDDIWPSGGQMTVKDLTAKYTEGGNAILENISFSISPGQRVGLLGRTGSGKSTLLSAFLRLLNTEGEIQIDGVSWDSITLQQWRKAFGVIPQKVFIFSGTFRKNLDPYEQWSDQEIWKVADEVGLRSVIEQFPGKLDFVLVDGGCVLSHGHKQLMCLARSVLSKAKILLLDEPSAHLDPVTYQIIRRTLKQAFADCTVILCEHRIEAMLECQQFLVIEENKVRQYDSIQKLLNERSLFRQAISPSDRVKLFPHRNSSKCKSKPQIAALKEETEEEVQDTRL
Compound,EC50 [1],EC50 [2],Maximum % activity (with co-corrector) [3],"Emax (CSE-HRP, without co-corrector)",EC50 [4],EC50 [5],Maximum % activity (with co-corrector) (with co-corrector (2 μM)),Emax (without co-corrector),Emax [6],Maximum % activity (with co-corrector) [7]
"COc1ccc(C2(C(F)(F)F)CC2)cc1CN[C@H]1[C@H](C(C)(C)C)[C@@H](C(=O)O)N(C(=O)C2CCCCC2)[C@H]1c1ccccc1 [Example 33, (2S,3S,4S,5S)-3-tert-butyl-1-(cyclohexanecarbonyl)-4-[({2-methoxy-5-[1-(trifluoromethyl)cyclopropyl]phenyl}methyl)amino]-5-phenylpyrrolidine-2-carboxylic acid]",–,–,–,–,1 to 10 µM,< 1 µM,+++ (≥350),> 200%,–,–
Cc1cc(C(F)(F)F)cc(N[C@@H]2[C@@H](C3CC3)[C@H](C(=O)O)N(C(=O)C3CCCCC3)[C@@H]2c2ccccc2)n1 (racemic) [Example I-7],–,–,–,–,1 to 10 µM,1 to 10 µM,++ (≥150 and <350),< 100%,–,–
COc1ccc(C23CC(C2)C3)cc1CN[C@H]1[C@H](C(C)(C)C)[C@@H](C(=O)O)N(C(=O)C2CCCCC2)[C@H]1c1cccnc1OC(F)F [Example I-228],–,–,–,–,1 to 10 µM,1 to 10 µM,+++ (≥350),100 to 200%,–,–
COc1ccc(Cl)cc1CN[C@H]1[C@H](C(C)(C)C)[C@@H](C(=O)O)N(C(=O)C2CCCCC2)[C@H]1c1ncccc1OC (racemic) [Example I-40],–,–,–,–,> 10 µM,> 10 µM,+ (<150),< 100%,–,–
COc1ccc(C(F)(F)F)cc1CN[C@H]1[C@H](C(C)(C)C)[C@@H](C(=O)O)N(C(=O)OC(C)C)[C@H]1c1ccccc1OC [II-136],1 to 10 µM,1 to 10 µM,+++ (≥350),100 to 200%,–,–,–,–,–,–
COc1ccc(Cl)cc1CN[C@@H]1[C@@H](C(C)(C)C)[C@H](C(=O)O)N(C(=O)C2CCOC(C)(C)C2)[C@@H]1c1ccccc1N(C)C (mixture of isomers) [II-25],1 to 10 µM,1 to 10 µM,+++ (≥350),> 200%,–,–,–,–,–,–
COc1ccc(C(F)(F)F)cc1CN[C@H]1[C@H](C(C)(C)OC)[C@@H](C(=O)O)N(C(=O)C2CCCCC2)[C@H]1c1ccccc1 [Example I-63],–,–,–,–,1 to 10 µM,< 1 µM,+++ (≥350),> 200%,–,–
"COc1ccc(C(C)(C)C)cc1CN[C@H]1[C@H](C(C)(C)C)[C@@H](C(=O)O)N(C(=O)C2CCc3ccccc3O2)[C@H]1c1ccccc1 (single isomer, unassigned) [Example I-83]",–,–,–,–,1 to 10 µM,1 to 10 µM,+++ (≥350),100 to 200%,–,–
COc1cc(C(C)(C)C)ccc1CN[C@H]1[C@H](C(C)(C)C)[C@@H](C(=O)O)N(C(=O)C2CCCCC2)[C@H]1c1cccnc1N(C)C [II-102],1 to 10 µM,< 1 µM,+++ (≥350),100 to 200%,–,–,–,–,–,–
COc1cc(OC(F)(F)F)ccc1CN[C@@H]1[C@@H](C(C)(C)C)[C@H](C(=O)O)N(C(=O)OC(C)C)[C@@H]1c1ccccc1 (racemic) [II-41],1 to 10 µM,1 to 10 µM,+++ (≥350),> 200%,–,–,–,–,–,–
"COc1ncc(C(F)(F)F)cc1CN[C@H]1[C@H](C(C)(C)C)[C@@H](C(=O)O)N(C(=O)[C@@H]2CCCCO2)[C@H]1c1ccccc1C(C)C [Example 84, (2S,3S,4S,5S)-3-tert-butyl-4-({[2-methoxy-5-(trifluoromethyl)pyridin-3-yl]methyl}amino)-1-[(2S)-oxane-2-carbonyl]-5-[2-(propan-2-yl)phenyl]pyrrolidine-2-carboxylic acid]",–,–,–,–,< 1 µM,< 1 µM,+++ (≥350),> 200%,–,–
COc1cc(Cl)ccc1CN[C@H]1[C@H](C(C)(C)C)[C@@H](C(=O)O)N(C(=O)C2CCCCC2)[C@H]1c1cccnc1OC [II-91],1 to 10 µM,1 to 10 µM,+++ (≥350),100 to 200%,–,–,–,–,–,–
COc1cc2c(cc1CN[C@H]1[C@H](C(C)(C)C)[C@@H](C(=O)O)N(C(=O)[C@@H]3CCCCO3)[C@H]1c1cccc3c1OCC3)CCCC2 [Example I-302],1 to 10 µM,1 to 10 µM,+++ (≥350),100 to 200%,–,–,–,–,–,–
COc1ccc(C(F)(F)F)cc1CN[C@H]1[C@H](C(C)(C)C)[C@@H](C(=O)O)N(C(=O)[C@@H]2CCCO2)[C@H]1c1cccnc1C1CC1 [Example I-269],1 to 10 µM,1 to 10 µM,+++ (≥350),100 to 200%,–,–,–,–,–,–
COc1ncc(C2CCC2)cc1CN[C@H]1[C@H](C(C)(C)C)[C@@H](C(=O)O)N(C(=O)[C@@H]2CCCCO2)[C@H]1c1ccccc1Br [Example I-291],< 1 µM,< 1 µM,+++ (≥350),100 to 200%,–,–,–,–,–,–
COc1cnc(N2CCCC2)cc1CN[C@H]1[C@H](C(C)(C)C)[C@@H](C(=O)O)N(C(=O)C2CCCCC2)[C@H]1c1ccccc1 [Example I-212],–,–,–,–,1 to 10 µM,1 to 10 µM,++ (≥150 and <350),< 100%,–,–

# Next, values leading:
EC50 [1],EC50 [2],Maximum % activity (with co-corrector) [3],"Emax (CSE-HRP, without co-corrector)",EC50 [4],EC50 [5],Maximum % activity (with co-corrector) (with co-corrector (2 μM)),Emax (without co-corrector),Emax [6],Maximum % activity (with co-corrector) [7],Compound
1 to 10 µM,1 to 10 µM,+++ (≥350),> 200%,–,–,–,–,–,–,COc1ccc(C(C)(C)C)cc1CN[C@H]1[C@H](C(C)(C)C)[C@@H](C(=O)O)N(C(=O)CC2=CCCC2)[C@H]1c1ccccc1 [II-234]
–,–,–,–,1 to 10 µM,1 to 10 µM,–,–,> 200%,+++ (≥350),COc1cc2c(cc1CN[C@H]1[C@H](C(C)(C)C)[C@@H](C(=O)O)N(C(=O)OC(C)C)[C@H]1c1cccnc1OC(C)C)CCC2 [II-574]
–,–,–,–,1 to 10 µM,1 to 10 µM,–,–,> 200%,+++ (≥350),COc1cc(C(F)(F)F)ccc1CN[C@H]1[C@H](C(C)(C)C)[C@@H](C(=O)O)N(C(=O)[C@@H]2CCCCO2)[C@H]1c1cccnc1N(C)C [II-495]
1 to 10 µM,1 to 10 µM,+++ (≥350),100 to 200%,–,–,–,–,–,–,COc1ccc(C(C)(C)C)cc1CN[C@H]1[C@H](C(C)(C)C)[C@@H](C(=O)O)N(C(=O)[C@H](C)OC)[C@H]1c1ccccc1 [II-308]
–,–,–,–,> 10 µM,1 to 10 µM,++ (≥150 and <350),–,< 100%,–,CC(C)(C)[C@H]1[C@H](NCc2cc3ccccc3nc2O)[C@H](c2ccccc2)N(C(=O)C2CCCCC2)[C@@H]1C(=O)O [III-180]
< 1 µM,< 1 µM,+++ (≥350),> 200%,–,–,–,–,–,–,COc1ncc(C2CCCCC2)cc1CN[C@H]1[C@H](C(C)(C)OC)[C@@H](C(=O)O)N(C(=O)C2CCCCC2)[C@H]1c1ccccc1 [II-252]
1 to 10 µM,< 1 µM,+++ (≥350),> 200%,–,–,–,–,–,–,COc1ncc(C(C)(C)C)cc1CN[C@H]1[C@H](C(C)(C)C)[C@@H](C(=O)O)N(C(=O)Cc2c(F)cccc2F)[C@H]1c1ccccc1 [II-301]
1 to 10 µM,1 to 10 µM,+++ (≥350),100 to 200%,–,–,–,–,–,–,COc1ccc(C(C)(C)C)cc1CN[C@H]1[C@H](C(C)(C)C)[C@@H](C(=O)O)N(C(=O)c2c(OC)cnn2C)[C@H]1c1ccccc1 [II-207]
1 to 10 µM,1 to 10 µM,+++ (≥350),< 100%,–,–,–,–,–,–,COc1ccc(-c2cccnc2C)cc1CN[C@H]1[C@H](C(C)(C)C)[C@@H](C(=O)O)N(C(=O)C2CCCCC2)[C@H]1c1ccccc1 [II-288]
–,–,–,–,1 to 10 µM,< 1 µM,+++ (≥350),–,100 to 200%,–,COc1ncc(C2CCC2)cc1CN[C@H]1[C@H](C(C)(C)C)[C@@H](C(=O)O)N(C(=O)C2CCCCC2C)[C@H]1c1ccccc1 (stereo partly drawn) [III-208]
1 to 10 µM,1 to 10 µM,+++ (≥350),100 to 200%,–,–,–,–,–,–,COc1ccc(-c2ccc(C)nc2)cc1CN[C@H]1[C@H](C(C)(C)C)[C@@H](C(=O)O)N(C(=O)C2CCCCC2)[C@H]1c1ccccc1 [II-278]
1 to 10 µM,1 to 10 µM,+++ (≥350),100 to 200%,–,–,–,–,–,–,COc1ccc(C(C)(C)C)cc1CN[C@H]1[C@H](C(C)(C)C)[C@@H](C(=O)O)N(C(=O)Cc2ccc(F)cc2)[C@H]1c1ccccc1 [II-181]
–,–,–,–,1 to 10 µM,1 to 10 µM,–,–,> 200%,+++ (≥350),C=CCOC(=O)N1[C@H](C(=O)O)[C@@H](C(C)(C)C)[C@H](NCc2cc(C(C)(C)C)ccc2OC)[C@@H]1c1ccccc1 [II-391]
–,–,–,–,1 to 10 µM,1 to 10 µM,–,–,> 200%,+++ (≥350),COc1ccc(C(F)(F)F)cc1CN[C@H]1[C@H](C(C)(C)C)[C@@H](C(=O)O)N(C(=O)OC(C)C)[C@H]1c1cccnc1N(C)C [II-551]
